Data on 17 compounds can be found in patent publication US12029739B2, “SHP2 inhibitor and use thereof” (KANAPH THERAPEUTICS INC., priority 2021, dated 2024).

One may read the IC50 as the point on the concentration scale where inhibition reaches its midpoint.

Read-outs that look alike come from different tables or passages of the source. A value given as a limit tells only on which side of the number the result lay.

One assay concerns the target T1, SHP2 (full length) (Homo sapiens, UniProt Q06124).
T1 construct: SHP2 (full length, diluted to 100 pM final concentration in reaction buffer, BPS bioscience, US); purchased BPS bioscience, US
T1 sequence (Q06124 1-593): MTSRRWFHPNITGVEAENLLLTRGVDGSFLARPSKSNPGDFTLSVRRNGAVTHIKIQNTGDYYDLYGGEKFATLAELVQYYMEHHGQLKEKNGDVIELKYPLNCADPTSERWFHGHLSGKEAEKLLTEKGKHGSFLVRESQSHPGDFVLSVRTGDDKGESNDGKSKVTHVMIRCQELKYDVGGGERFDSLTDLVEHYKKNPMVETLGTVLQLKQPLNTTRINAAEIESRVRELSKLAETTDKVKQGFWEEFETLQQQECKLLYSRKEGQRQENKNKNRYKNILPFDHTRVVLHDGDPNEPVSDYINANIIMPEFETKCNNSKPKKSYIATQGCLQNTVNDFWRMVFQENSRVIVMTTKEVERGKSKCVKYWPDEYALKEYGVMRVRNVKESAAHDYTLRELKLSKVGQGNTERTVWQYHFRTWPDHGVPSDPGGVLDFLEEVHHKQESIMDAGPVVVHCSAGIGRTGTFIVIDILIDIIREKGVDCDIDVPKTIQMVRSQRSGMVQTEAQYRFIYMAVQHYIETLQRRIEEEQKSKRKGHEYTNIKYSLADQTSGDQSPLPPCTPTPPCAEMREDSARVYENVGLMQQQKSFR
Put plainly: Phosphatase assay (PTPase assay) with DiFMUP substrate. Particulars: SHP2 activated with SHP2 activating peptide; DiFMUP 80 μM, 2 hours; fluorescence; read-out: IC50 (PTPase aS say). Format: biochemical.

Assay [1] relates to phospho-ERK in MIA PaCa2 or H358 cells. The assay can be described thus: Phospho-ERK assay (AlphaLisa). Particulars: MIA PaCa2 or H358 cells, compound incubated 1.5 hours, read-out: IC50 (p-ERK). Format: cell-based. In general terms: Alpha assays give light when donor and acceptor beads are brought close together.

`CC(=O)Cn1cnc2ccc(Sc3cnc(N4CCC5(CC4)CO[C@@H](C)[C@H]5N)cn3)c(Cl)c2c1=O` [Example 92, 6-((5-((3S,4S)-4-amino-3-methyl-2-oxa-8-azaspiro[4.5]decan-8-yl)pyrazin-2-yl)thio)-5-chloro-3-(2-oxopropyl)quinazolin-4(3H)-one]: the IC50 on SHP2 (full length) was below 3 nM; in assay [1] (1.5 h), below 45 nM.

On to `Cn1c(N2CCN(CCN)CC2)nc(N)c(Sc2cccc(Cl)c2Cl)c1=O` [Example 194, 6-amino-2-(4-(2-aminoethyl)piperazin-1-yl)-5-((2,3-dichlorophenyl)thio)-3-methylpyrimidin-4(3H)-one], for which the IC50 on SHP2 (full length) was above 100 nM; in assay [1] (1.5 h), above 1500 nM.

On to `CC(C)(O)Cn1cnc2ccc(Sc3cnc(N4CCC5(CC4)Cc4scnc4[C@H]5N)cn3)c(Cl)c2c1=O` [Example 160, 6-[5-[(4S)-4-amino[4,6-dihydrocyclopenta[d]thiazole-5,4′-piperidin]-1′-yl]pyrazin-2-yl]sulfanyl-5-chloro-3-(2-hydroxy-2-methyl-propyl)quinazolin-4-one], for which the results for the IC50 (at SHP2 (full length); in assay [1] (1.5 h)) were below 3 nM and below 45 nM, respectively.

For `C[C@@H]1OCC2(CCN(c3cnc(Sc4ccc5ncn(CC6(O)CCOCC6)c(=O)c5c4Cl)cn3)CC2)[C@@H]1N` [Example 83, 6-((5-((3S,4S)-4-amino-3-methyl-2-oxa-8-azaspiro[4.5]decan-8-yl)pyrazin-2-yl)thio)-5-chloro-3-((4-hydroxytetrahydro-2H-pyran-4-yl)methyl)quinazolin-4(3H)-one], the IC50 is below 3 nM on SHP2 (full length) and below 45 nM in assay [1] (1.5 h).

As for `CC(O)CCn1cnc2ccc(Sc3cnc(N4CCC5(CC4)Cc4ncccc4[C@H]5N)cn3)c(Cl)c2c1=O` (stereo partly drawn) [Example 111, (6-((5-((S)-5-amino-5,7-dihydrospiro[yclopenta[b]pyridine]-6,4′-piperidin]-1′-yl)pyrazin-2-yl]thio)-5-chloro-3-(3-hydroxybutyl)quinazolin-4(3H)-one], the IC50 on SHP2 (full length) was below 3 nM; in assay [1] (1.5 h) it was below 45 nM.

`Cc1ccc(Cn2cnc3ccc(Sc4cnc(N5CCC6(CC5)CO[C@@H](C)[C@H]6N)cn4)c(Cl)c3c2=O)c(F)c1` [Example 69, 6-((5-((3S,4S)-4-amino-3-methyl-2-oxa-8-azaspiro[4.5]decan-8-yl)pyrazin-2-yl)thio)-5-chloro-3-(2-fluoro-4-methylbenzyl)quinazolin-4(3H)-one]: the IC50 at SHP2 (full length) is below 3 nM; in assay [1] (1.5 h) it was below 45 nM.

In the case of `COCCCn1cnc2ccc(Sc3cnc(N4CCC5(CC4)CO[C@@H](C)[C@H]5N)cn3)c(Cl)c2c1=O` [Example 94, 6-((5-((3S,4S)-4-amino-3-methyl-2-oxa-8-azaspiro[4.5]decan-8-yl)pyrazin-2-yl)thio)-5-chloro-3-(3-methoxypropyl)quinazolin-4(3H)-one], the values for the IC50 (on SHP2 (full length); in assay [1] (1.5 h)) were below 3 nM and above 1500 nM, respectively.

Consider `C[C@@H]1OCC2(CCN(c3cnc(Sc4ccc5nc(Oc6cccnc6)[nH]c5c4Cl)cn3)CC2)[C@@H]1N` [Example 128], for which the IC50 is below 3 nM at SHP2 (full length) and below 45 nM in assay [1] (1.5 h).

Consider `CCOC(=O)c1cccc(Sc2c(N)nc(N3CCC(C)(N)CC3)n(C)c2=O)c1Cl` [Example 2, ethyl 3-((4-amino-2-(4-amino-4-methylpiperidin-1-yl)-1-methyl-6-oxo-1,6-dihydropyrimidin-5-yl)thio)-2-chlorobenzoate], for which the IC50 at SHP2 (full length) is above 100 nM; in assay [1], 45 to 1500 nM.

In the case of `C[C@@H]1OCC2(CCN(c3cnc(Sc4ccc5c(c4Cl)C(=O)N(Cc4ccccc4)CC5)cn3)CC2)[C@@H]1N` [Example 85, 7-((5-((3S,4S)-4-amino-3-methyl-2-oxa-8-azaspiro[4.5]decan-8-yl)pyrazin-2-yl)thio)-2-benzyl-8-chloro-3,4-dihydroisoquinolin-1(2H)-one], the IC50 on SHP2 (full length) was 3 to 100 nM; in assay [1] (1.5 h) it was above 1500 nM.

As to `COCCn1cnc2ccc(Sc3ccc(N4CCC5(CC4)CO[C@@H](C)[C@H]5N)cn3)c(Cl)c2c1=O` [Example 181, 6-((5-((3S,4S)-4-amino-3-methyl-2-oxa-8-azaspiro[4.5]decan-8-yl)pyridin-2-yl)thio)-5-chloro-3-(2-methoxyethyl)quinazolin-4(3H)-one], the figures for the IC50 (on SHP2 (full length); in assay [1]) were 3 to 100 nM and 45 to 1500 nM, respectively.

Take `C[C@@H]1OCC2(CCN(c3cnc(Sc4ccc5ncn(CCN(C)S(C)(=O)=O)c(=O)c5c4Cl)cn3)CC2)[C@@H]1N` [Example 123, N-(2-(6-((5-((3S,4S)-4-amino-3-methyl-2-oxa-8-azaspiro[4,5]decan-8-yl)pyrazin-2-yl)thio)-5-chloro-4-oxoquinazolin-3(4H)-yl]ethyl)-N-methylmethanesulfonamide]: the IC50 was below 3 nM at SHP2 (full length) and below 45 nM in assay [1] (1.5 h).

Take `C[C@@H]1OCC2(CCN(c3cnc(Sc4ccc5nc(OC6CCOC6)[nH]c5c4Cl)cn3)CC2)[C@@H]1N` (stereo partly drawn) [Example 126, (3S,4S)-8-(5-((7-chloro-2-((tetrahydrofuran-3-yl)oxy)-1H-benzo[d]imidazol-6-yl)thio)pyrazin-2-yl)-3-methyl-2-oxa-8-azaspiro[4,5]decan-4-amine]: the IC50 on SHP2 (full length) was in the range of 3 to 100 nM; in assay [1] (1.5 h), 45 to 1500 nM.

Consider `Cn1c(N2CCN(CCCN)CC2)nc(N)c(Sc2cccc(Cl)c2Cl)c1=O` [Example 199, 6-amino-2-(4-(3-aminopropyl)piperazin-1-yl)-5-((2,3-dichlorophenyl)thio)-3-methylpyrimidin-4(3H)-one], for which the values for the IC50 (at SHP2 (full length); in assay [1] (1.5 h)) were above 100 nM and above 1500 nM, respectively.

Consider `C[C@@H]1OCC2(CCN(c3cnc(Sc4ccc5ncn(Cc6nc7ccccc7[nH]6)c(=O)c5c4Cl)cn3)CC2)[C@@H]1N` [Example 37, 3-((1H-benzo[d]imidazol-2-yl)methyl)-6-((5-((3S,4S)-4-amino-3-methyl-2-oxa-8-azaspiro[4.5]decan-8-yl)pyrazin-2-yl)thio)-5-chloroquinazolin-4(3H)-one], for which the IC50 was below 3 nM at SHP2 (full length) and below 45 nM in assay [1] (1.5 h).

On to `COCCn1cnc2ccc(Sc3cnc(N4CCC5(CC4)CO[C@@H](C)[C@H]5N)cn3)c(F)c2c1=O` [Example 156], for which the figures for the IC50 (at SHP2 (full length); in assay [1] (1.5 h)) were 3 to 100 nM and below 45 nM, respectively.

On to `C[C@@H]1OCC2(CCN(c3cnc(Sc4ccc5nc(Cc6cccnc6)[nH]c5c4Cl)cn3)CC2)[C@@H]1N` [Example 137, (3S,4S)-8-(5-((7-chloro-2-(pyridin-3-ylmethyl)-1H-benzo[d]imidazol-6-yl)thio)pyrazin-2-yl)-3-methyl-2-oxa-8-azaspiro[4.5]decan-4-amine], for which the IC50 lay within 3 to 100 nM at SHP2 (full length) and 45 to 1500 nM in assay [1] (1.5 h).
